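Interpolation was linear, between the two tested concentrations surrounding the appropriate level; five concentrations were tested over 48 hours in 96-well plates. Abbreviation: GI50, concentration required for 50% inhibition of growth.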 Active and inactive are the calls of the source. Cut-off read from the data, not from the text of the source: active = GI50 up to about 1.1 µM and inactive = higher.
Legend:
Test in all cases: inhibition of tumour cell growth, NCI panel, 48 h
OVCAR-3 = system: OVCAR-3
K562 = system: K562
MDA-N = system: MDA-N
HCC 2998 = system: HCC 2998
UACC-62 = system: UACC-62
RXF 393 = system: RXF 393
CAKI-1 = system: CAKI-1
KM12 = system: KM12
Hs-578T = system: Hs-578T
SK-MEL-5 = system: SK-MEL-5
EKVX = system: EKVX
MDA-MB-435 = system: MDA-MB-435
HT-29 = system: HT-29
786-0 = system: 786-0
OVCAR-5 = system: OVCAR-5
NCI-H226 = system: NCI-H226
NCI-H23 = system: NCI-H23
SN12C = system: SN12C
Malme-3M = system: Malme-3M
NCI-H460 = system: NCI-H460

Structure (SMILES)	GI50 (OVCAR-3)	GI50 (K562)	GI50 (MDA-N)	GI50 (HCC 2998)	GI50 (UACC-62)	GI50 (RXF 393)	GI50 (CAKI-1)	GI50 (KM12)	GI50 (Hs-578T)	GI50 (SK-MEL-5)	GI50 (EKVX)	GI50 (MDA-MB-435)	GI50 (HT-29)	GI50 (786-0)	GI50 (OVCAR-5)	GI50 (NCI-H226)	GI50 (NCI-H23)	GI50 (SN12C)	GI50 (Malme-3M)	GI50 (NCI-H460)
CN(C)c1ccc(/C=c2\c3ccccc3n3c2cc(-c2ccccc2)[n+]3C)cc1	0.0752 µM (active)	0.07 µM (active)	0.144 µM (active)	1.35 µM (inactive)	0.365 µM (active)	0.547 µM (active)	0.716 µM (active)	0.185 µM (active)	0.0335 µM (active)	0.0728 µM (active)	0.32 µM (active)	0.0916 µM (active)	0.0891 µM (active)	0.142 µM (active)	0.67 µM (active)	< 0.01 µM (active)	0.0582 µM (active)	0.149 µM (active)	0.153 µM (active)	0.103 µM (active)
O=c1oc2ccc3ccccc3c2cc1-c1nc2ccccc2o1	15.3 µM (inactive)	58.3 µM (inactive)	23.3 µM (inactive)	61.1 µM (inactive)	36.1 µM (inactive)	16.1 µM (inactive)	17.1 µM (inactive)	27.3 µM (inactive)	21.4 µM (inactive)	25.9 µM (inactive)	20.6 µM (inactive)	23.2 µM (inactive)	20.7 µM (inactive)	18.6 µM (inactive)	> 100 µM (inactive)	22.5 µM (inactive)	27.4 µM (inactive)	22.6 µM (inactive)	13.7 µM (inactive)	27.5 µM (inactive)
COc1c(-c2nc3ccc(N4CCN(C)CC4)nc3[nH]2)cc(OC)c2[nH]c(CO)nc12	39.3 µM (inactive)	58.1 µM (inactive)	> 100 µM (inactive)	38.2 µM (inactive)	82.2 µM (inactive)	> 100 µM (inactive)	> 100 µM (inactive)	93.5 µM (inactive)	> 100 µM (inactive)	> 100 µM (inactive)	> 100 µM (inactive)	56.8 µM (inactive)	> 100 µM (inactive)	69.3 µM (inactive)	> 100 µM (inactive)	36.1 µM (inactive)	> 100 µM (inactive)	53 µM (inactive)	> 100 µM (inactive)	> 100 µM (inactive)
CC(C)C1(C)N=C(C(F)(F)F)c2cc(C(=O)C(F)(F)F)c3ccccc3c2N1 (stereo not given)	3.08 µM (inactive)	3.96 µM (inactive)	3.04 µM (inactive)	3.69 µM (inactive)	4.33 µM (inactive)	2.71 µM (inactive)	3.34 µM (inactive)	3.31 µM (inactive)	2.5 µM (inactive)	10.7 µM (inactive)	4.91 µM (inactive)	3.21 µM (inactive)	3.44 µM (inactive)	3.7 µM (inactive)	11.2 µM (inactive)	12.9 µM (inactive)	2.77 µM (inactive)	2.91 µM (inactive)	3 µM (inactive)	4.41 µM (inactive)
CN1CCN(c2n[nH]c(=O)c3c2nnn3C2CCCCC2)CC1	> 100 µM (inactive)	> 100 µM (inactive)	> 100 µM (inactive)	> 100 µM (inactive)	> 100 µM (inactive)	> 100 µM (inactive)	> 100 µM (inactive)	> 100 µM (inactive)	> 100 µM (inactive)	> 100 µM (inactive)	> 100 µM (inactive)	> 100 µM (inactive)	> 100 µM (inactive)	> 100 µM (inactive)	> 100 µM (inactive)	> 100 µM (inactive)	> 100 µM (inactive)	> 100 µM (inactive)	> 100 µM (inactive)	> 100 µM (inactive)
c1ccc(/C(=N/Nc2ccccn2)c2cccnn2)cc1	1.92 µM (inactive)	1.47 µM (inactive)	7.57 µM (inactive)	5.37 µM (inactive)	3.44 µM (inactive)	15.7 µM (inactive)	1.75 µM (inactive)	2.72 µM (inactive)	11.8 µM (inactive)	2.35 µM (inactive)	1.74 µM (inactive)	4.73 µM (inactive)	1.16 µM (inactive)	1.38 µM (inactive)	7.73 µM (inactive)	1.07 µM (active)	2.91 µM (inactive)	2.15 µM (inactive)	5.4 µM (inactive)	1.34 µM (inactive)
O=C(N/N=C\c1cccc2ccccc12)Nc1ccc([N+](=O)[O-])cc1	7.74 µM (inactive)	5.58 µM (inactive)	19.1 µM (inactive)	15.8 µM (inactive)	18.1 µM (inactive)	7.13 µM (inactive)	42.1 µM (inactive)	10.9 µM (inactive)	25.4 µM (inactive)	22.6 µM (inactive)	> 39.4 µM (inactive)	18.9 µM (inactive)	16.8 µM (inactive)	3.54 µM (inactive)	19.7 µM (inactive)	23.3 µM (inactive)	8.89 µM (inactive)	18.5 µM (inactive)	14.2 µM (inactive)	10.9 µM (inactive)
O=[N+]([O-])c1cc(-[n+]2cc([O-])on2)ccc1F	17 µM (inactive)	34.4 µM (inactive)	16.1 µM (inactive)	14.4 µM (inactive)	17.1 µM (inactive)	14.1 µM (inactive)	2.11 µM (inactive)	17.2 µM (inactive)	26.7 µM (inactive)	15 µM (inactive)	18 µM (inactive)	16.2 µM (inactive)	14.9 µM (inactive)	11.7 µM (inactive)	16.5 µM (inactive)	23.4 µM (inactive)	18.2 µM (inactive)	16.7 µM (inactive)	14.7 µM (inactive)	18.5 µM (inactive)
CC[C@H](C)C(=O)O[C@H]1CCC=C2C=C[C@H](C)[C@H](CC[C@@H]3C[C@@H](O)CC(=O)O3)[C@H]21 [MEVASTATIN]	30.4 µM (inactive)	30.1 µM (inactive)	> 100 µM (inactive)	25.6 µM (inactive)	5.68 µM (inactive)	14.3 µM (inactive)	3.37 µM (inactive)	37 µM (inactive)	3.42 µM (inactive)	20.6 µM (inactive)	> 38.9 µM (inactive)	24.1 µM (inactive)	36.7 µM (inactive)	13.3 µM (inactive)	31.6 µM (inactive)	25.4 µM (inactive)	20.1 µM (inactive)	> 78.9 µM (inactive)	34.1 µM (inactive)	28 µM (inactive)
C=C(C)[C@@H]1CC=C(CO)CC1 [PERILLYL ALCOHOL]	150 µM (inactive)	30.5 µM (inactive)	> 10 µM (inactive)	753 µM (inactive)	236 µM (inactive)	93.8 µM (inactive)	> 10 µM (inactive)	316 µM (inactive)	> 10 µM (inactive)	110 µM (inactive)	617 µM (inactive)	> 10 µM (inactive)	136 µM (inactive)	195 µM (inactive)	169 µM (inactive)	251 µM (inactive)	465 µM (inactive)	555 µM (inactive)	324 µM (inactive)	454 µM (inactive)
